# Measured values from US11000491B2, “Amino-aryl-benzamide compounds and methods of use thereof” (HEPANOVA, INC., priority 2017, dated 2021).
# Tests used:
# Assay type in all cases: cell-based
# [1] = tested on: SREBP-2; assay: SREBP-2 expression in cultured primary human hepatocytes; details: Homo sapiens, Hepatocyte, procedure of Example 6, read-out: SREBP-2 mRNA inhibition (EC50)
# In short: (§1)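 Primary human hepatocytes in culture exposed to a range of HPN-01 derivative concentrations; SREBP-1 and SREBP-2 mRNA expression then measured to assess inhibition.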
# [2] = tested on: Huh7 cells; assay: LD content in Huh7 cells pre-treated with insulin, Oil-Red-O staining, absorbance OD 540 nm; details: Homo sapiens, Huh-7, Huh7 cells, procedure of Example 3; read-out: LD content inhibition (EC50)
# In short: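 Huh7 cells, mock-treated or pre-treated with 1 mM insulin, were then exposed to compound at the indicated amounts. Lipid droplets stained with Oil Red O and quantified by absorbance at OD 540 nm.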
# [3] = tested on: SREBP-1; assay: SREBP-1 expression in cultured primary human hepatocytes; details: Homo sapiens, Hepatocyte, procedure of Example 6, read-out: SREBP-1 mRNA inhibition (EC50)
# In short: as §1
EC50 [2] [nM],SMILES,EC50 [1] [µM],EC50 [3] [µM]
1140,"NC(=O)c1cc(-c2ccc(Cl)cc2)cc(-c2ccc(S(N)(=O)=O)cn2)c1N [HPN-01428, 4-amino-4′-chloro-5-(5-sulfamoylpyridin-2-yl)-[1,1′-biphenyl]-3-carboxamide]",18.8,5.65
1330,"CCCC(=O)Oc1ccc(-c2cc(C(N)=O)c(N)c(-c3ccc(S(N)(=O)=O)cc3)c2)cc1 [HPN-01306, 4′-amino-5′-carbamoyl-4″-sulfamoyl-[1,1′:3′,1″-terphenyl]-4-yl butyrate]",3.26,1.76
580,"NC(=O)c1cc(Nc2cccc(C(=O)O)c2)cc(-c2ccc(S(N)(=O)=O)cc2)c1N [HPN-01317, 3-((6-amino-5-carbamoyl-4′-sulfamoyl-[1,1′-biphenyl]-3-yl)amino)benzoic acid]",4.32,3.35
1150,"NC(=O)c1cc(-c2ccc(Cl)cc2)cc(-c2ccc(S(N)(=O)=O)cc2)c1NCc1cccc(Cl)c1 [HPN-01532, 4-chloro-4′-((3-chlorobenzyl)amino)-4″-sulfamoyl-[1,1′:3′,1″-terphenyl]-5′-carboxamide]",8.6,2.69
